# Source: article PMC6494845 (Scientific Reports, 2019)
# Read-outs that look alike come from different tables or passages of the source.
# Columns and labels:
# Aβ(1–42) aggregates = molecular target: T1, Aβ(1–42) aggregates (Homo sapiens, UniProt P05067); test: In vitro binding assay using Aβ(1–42) aggregates (intrinsic fluorescence of the ligands); settings: Aβ(1–42) aggregates 1 μM, PBS, 37 °C, 1 h, ligand fluorescence
# T1 construct: β-Amyloid(1–42) peptide was purchased from Bachem; purchased Bachem (Torrance, CA, USA)
# Method: Binding constants of the ligands for Aβ(1–42) aggregates were determined using the intrinsic fluorescence of the ligands. The binding constant of CRANAD-2 was also measured for comparison. […] Considering the Kd values and feasibility of ^18F-labeling of all the ligands, ligand 2 was selected for further in vitro and in vivo studies.
# Aβ(1–42) aggregates were prepared as described in the literature. Briefly, Aβ(1–42) peptide (200 μM) was dissolved in PBS and stirred gently at 37 °C for 2 d. The Aβ(1–42) aggregate formation was confirmed by thioflavin-T fluorescence assay. In vitro binding assays were carried out using the methods described in the literature with some modifications. Various concentrations of ligands (10–400 nM) were dissolved in DMSO, which were then added to PBS solutions of Aβ(1–42) aggregates (1 μM) charged in 96-well black clear-bottom plates. The final concentration of DMSO in a total volume of solution was 1%. Non-specific binding was determined in the absence of Aβ(1–42) aggregates. The reaction mixtures were incubated at 37 °C for 1 h, after which the fluorescence spectra of the ligands were obtained (excitation 510–560 nm and emission 590–660 nm) using a monochromator multimode microplate reader. All experiments were performed in triplicate. Kd values were determined using GraphPad Prism software 5.
# Aβ plaques = Aβ plaques (Homo sapiens, UniProt P05067); test: Fluorescent staining of Aβ plaques in mouse brain sections; set-up: species or system double transgenic mouse (Tg APP/PS-1)
# Method: Fluorescent staining of Aβ plaques by 2 was performed using the brain sections from a double transgenic mouse (Tg APP/PS-1). Localization of the Aβ plaques was confirmed by immunofluorescent staining the adjacent brain sections from the transgenic mouse with an anti-Aβ antibody (Fig. 6). The Aβ plaques in the cerebral cortex and hippocampus regions of the transgenic mouse brain sections were stained with 2 (Fig. 6a–c). The staining pattern was consistent with that observed with an Aβ-specific antibody (Fig. 6d–f).
# Figure 6 A double transgenic mouse brain section (a–c) and an age-matched wild-type mouse brain section (g–i) stained with 2. The adjacent double transgenic mouse brain section (d–f) and age-matched wild-type mouse brain section (j–l) stained with an Aβ-specific antibody. Magnification of the regions in white boxes (c,f,i and l). Scale bars: 100 μm (c,f,i and l) and 200 μm (the rest).
# A double transgenic mouse (APP/PS1, male, 18 months old) was transcardially perfused with PBS, followed by 10% neutral buffered formalin (NBF) under anesthesia. The brain was then immediately removed from skull and post-fixed in 10% NBF for 24 h. The hippocampus and cerebral cortex regions were sliced using brain matrix, embedded in paraffin, and sectioned serially into 4 μm thickness. Brain sections from an age-matched wild-type mouse (male) were obtained as described above. […]
# [1] = Metabolism study of 2 (TLC with fluorescence detection of brain homogenates); format: in vivo, Balb/C nude mice
# Method: In order to further investigate the metabolites of [^18F]2, metabolism study of 2 was also performed; the brain homogenates were analyzed by TLC, followed by fluorescence detection.
# After ex vivo optical imaging, the brain tissues were homogenized in 1 mL of acetonitrile and centrifuged. The supernatants were analyzed by TLC using a 4:1 mixture of ethyl acetate–hexane as the developing solvents, and the TLC plates were subjected to optical imaging for 1 sec (excitation, 570 nm; emission, 660 nm).
# [2] = Excitation and emission spectra; format: physicochemical; settings: methanol, 2.5 μM
# Method: Despite this, ligand 2 has sufficient red-shifted emission for optical imaging.
# Ligand 2 was dissolved in methanol (2.5 μM), and its excitation and emission spectra were obtained using a Mithras[2] LB 943 monochromator multimode microplate reader (Berthold Technologies, Bad Wildbad, Germany).
# [3] = In vitro stability in PBS and FBS (radio-TLC); format: in vitro ADME; settings: for remaining at 2 h: 37 °C, 120 min, radio-TLC, read-out: % remaining radioligand
# Method: Stability study was performed by incubating [^18F]2 in phosphate-buffered saline (PBS) and in fetal bovine serum (FBS) at 37 °C for 120 min.
# Data are presented as % remaining radioligand.
# [^18F]2 (21.5 MBq) was dissolved in a minimal volume of 10% ethanol–saline and incubated with PBS or 50% FBS (Gibco, Brooklyn, NY, USA) at 37 °C for 120 min. Aliquots were taken from the incubation solution after 0, 2, 30, 60, and 120 min. The aliquots were analyzed using a radio-TLC scanner.
# Biodistribution study = format: in vivo; settings: ICR mice, i.v.
# Method: However, there was poor brain uptake at 2 min after injection with increased uptake over time, as follows: 0.49 ± 0.02% ID/g at 2 min, 1.02 ± 0.08% ID/g at 30 min, and 1.19 ± 0.06% ID/g at 60 min (Table 1).
# ICR mice (male, 7-week-old, four mice per time point) were injected with [^18F]2 (1.85 MBq) dissolved in 10% ethanol–saline via a tail vein. Mice were sacrificed at the indicated time points (2, 30, and 60 min). Samples of blood and major tissues (heart, lung, liver, spleen, kidney, intestines, muscle, femur, and brain) were removed, weighed, and counted in a Wizard[2] automatic gamma counter (PerkinElmer, Waltham, MA, USA). Data are expressed as the percent injected dose per gram of tissue (% ID/g).
# [4] = Partition coefficient measurement (1-octanol/water); format: physicochemical; settings: 1-octanol and water
# Method: Difluoroboron complex formation lowered the lipophilicity of the curcumin derivative based on TLC analysis.
# Partition coefficient of [^18F]2 was measured according to the method described in the literature. [^18F]2 was dissolved in 1-octanol (1 mL) and diluted with water (1 mL). The solution was vortexed vigorously for 5 min and then centrifuged. The 1-octanol and aqueous layers were separated out, and a 500-μL aliquot of each layer was removed and measured using a gamma counter. Samples from the 1-octanol and aqueous layers were repartitioned until consistent values were obtained. The log P is expressed as the logarithm of the ratio of the counts per minute of 1-octanol versus that of water.
# [5] = Metabolism study of [^18F]2 (radio-TLC of brain homogenates and blood); format: in vivo, ICR mice; settings: brain homogenate, 2 min after injection
# Method: However, the radioligand disappeared almost entirely, and the new polar radioactive peaks appeared at the origin of radio-TLC at 30 and 60 min after injection (82% and 100%, respectively; Fig. 9c,d). The radioligand also disappeared in the blood samples, but at a rate slower than that of the brain samples (Fig. 9f–h). The polar radioactive products were further analyzed by radio-TLC using a polar developing solvent system, and the polar products moved toward the solvent front. […] Moreover, the polar products were not adsorbed onto calcium phosphate (7% in calcium phosphate pellet vs. 93% in supernatant), which is a component of the bone matrix.
# Figure 9 Radio-TLC analysis of the brain homogenates and blood samples obtained at 2, 30, and 60 min after injection of [^18F]2 into ICR mice. […] The 60-min samples (d and h) were further analyzed by radio-TLC using a 1:1:0.01 mixture of dichloromethane–methanol–triethylamine as the developing solvents (e and i). TLC analysis followed by fluorescence detection of the brain homogenates obtained at 2, 30, and 60 min after injection of 2 into Balb/C nude mice (j). […]
# [^18F]2 (19.6 MBq) dissolved in 10% ethanol–saline was injected into ICR mice via a tail vein. […] The supernatants were analyzed by radio-TLC using a 4:1 mixture of ethyl acetate–hexane or a 1:1:0.01 mixture of dichloromethane–methanol–triethylamine as the developing solvents.
# HIV-1 protease = test system: HIV-1 protease; set-up: method as in PMID 8087563; settings: cited from earlier work
# T1 sequence (P05067 672-713): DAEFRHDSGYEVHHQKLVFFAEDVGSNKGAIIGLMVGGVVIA
# Sequence of Aβ plaques (P05067 672-711 limits assumed): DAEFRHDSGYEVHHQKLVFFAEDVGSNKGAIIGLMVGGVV
structure (smiles),measurement,setting,value
"CNc1ccc(/C=C/C2=[O+][B-](F)(F)OC(/C=C/c3ccc(OCCOCCF)cc3)=C2)cc1 [Ligand 1, BF2 complex of 4′-monomethylamino-4″-(2-(2-fluoroethoxy)ethoxy)curcuminoid]",Kd,Aβ(1–42) aggregates,33.8 nM
"CN(C)c1ccc(/C=C/C2=[O+][B-](F)(F)OC(/C=C/c3ccc(OCCOCCF)cc3)=C2)cc1 [Ligand 2, BF2 complex of 4′-dimethylamino-4″-(2-(2-fluoroethoxy)ethoxy)curcuminoid]",Kd,Aβ(1–42) aggregates,19.7 nM
same,staining of Aβ plaques,"Aβ plaques; Tg APP/PS-1 mouse brain sections, cerebral cortex and hippocampus, 100 μM, 10 min",stained
same,staining of brain sections,Aβ plaques; age-matched wild-type mouse brain sections,no notable positive staining
same,fluorescent spot of 2 on TLC of brain homogenate,[1]; 2-min sample,a fluorescent spot was detected
same,fluorescent spot of 2 on TLC of brain homogenate,[1]; 30- and 60-min samples,did not appear
same,emission,[2],650 nm
same,excitation,[2],550 nm
"COc1cc(/C=C/C2=[O+][B-](F)(F)OC(/C=C/c3ccc(OCCOCCF)c(OC)c3)=C2)ccc1O [Ligand 3, BF2 complex of 4′-(2-(2-fluoroethoxy)ethoxy)curcuminoid]",Kd,Aβ(1–42) aggregates,138 nM
"CN(C)c1ccc(/C=C/C2=[O+][B-](F)(F)OC(/C=C/c3ccc(OCC(O)CF)cc3)=C2)cc1 (stereo not shown) [Ligand 4, BF2 complex of 4′-dimethylamino-4″-(3-fluoro-2-hydroxypropoxy)curcuminoid]",Kd,Aβ(1–42) aggregates,15.3 nM
CN(C)c1ccc(/C=C/C2=[O+][B-](F)(F)OC(/C=C/c3ccc(OCCOCC[18F])cc3)=C2)cc1 [[^18F]2],remaining at 120 min,"[3]; bovine, PBS and fetal bovine serum (50%), both PBS and FBS, read-out: % remaining radioligand (stable in both PBS and FBS)",> 83%
same,remaining at 2 h,"[3]; bovine, fetal bovine serum (50%), FBS (50% FBS in method)",83%
same,remaining at 2 h,"[3]; phosphate-buffered saline, PBS",89%
same,"Biodistribution, Blood",Biodistribution study; 2 min,1.49 ± 0.12 % ID/g
same,"Biodistribution, Brain",Biodistribution study; 2 min,0.49 ± 0.02 % ID/g
same,"Biodistribution, Femur",Biodistribution study; 2 min,0.58 ± 0.10 % ID/g
same,"Biodistribution, Heart",Biodistribution study; 2 min,2.20 ± 0.57 % ID/g
same,"Biodistribution, Kidney",Biodistribution study; 2 min,3.25 ± 0.48 % ID/g
same,"Biodistribution, Large intestine",Biodistribution study; 2 min,0.24 ± 0.05 % ID/g
same,"Biodistribution, Liver",Biodistribution study; 2 min,26.92 ± 1.58 % ID/g
same,"Biodistribution, Lung",Biodistribution study; 2 min,3.56 ± 0.25 % ID/g
same,"Biodistribution, Muscle",Biodistribution study; 2 min,0.49 ± 0.19 % ID/g
same,"Biodistribution, Small intestine",Biodistribution study; 2 min,0.92 ± 0.13 % ID/g
same,"Biodistribution, Spleen",Biodistribution study; 2 min,12.59 ± 2.42 % ID/g
same,"Biodistribution, Blood",Biodistribution study; 30 min,2.50 ± 0.22 % ID/g
same,"Biodistribution, Brain",Biodistribution study; 30 min,1.02 ± 0.08 % ID/g
same,"Biodistribution, Femur",Biodistribution study; 30 min,0.91 ± 0.13 % ID/g
same,"Biodistribution, Heart",Biodistribution study; 30 min,1.93 ± 0.19 % ID/g
same,"Biodistribution, Kidney",Biodistribution study; 30 min,4.11 ± 0.46 % ID/g
same,"Biodistribution, Large intestine",Biodistribution study; 30 min,0.95 ± 0.11 % ID/g
same,"Biodistribution, Liver",Biodistribution study; 30 min,14.21 ± 1.39 % ID/g
same,"Biodistribution, Lung",Biodistribution study; 30 min,2.62 ± 0.29 % ID/g
same,"Biodistribution, Muscle",Biodistribution study; 30 min,0.97 ± 0.11 % ID/g
same,"Biodistribution, Small intestine",Biodistribution study; 30 min,6.47 ± 1.63 % ID/g
same,"Biodistribution, Spleen",Biodistribution study; 30 min,11.66 ± 2.70 % ID/g
same,"Biodistribution, Blood",Biodistribution study; 60 min,3.46 ± 0.81 % ID/g
same,"Biodistribution, Brain",Biodistribution study; 60 min,1.19 ± 0.06 % ID/g
same,"Biodistribution, Femur",Biodistribution study; 60 min,1.43 ± 0.14 % ID/g
same,"Biodistribution, Heart",Biodistribution study; 60 min,1.87 ± 0.20 % ID/g
same,"Biodistribution, Kidney",Biodistribution study; 60 min,2.58 ± 0.15 % ID/g
same,"Biodistribution, Large intestine",Biodistribution study; 60 min,2.16 ± 0.42 % ID/g
same,"Biodistribution, Liver",Biodistribution study; 60 min,9.36 ± 0.18 % ID/g
same,"Biodistribution, Lung",Biodistribution study; 60 min,2.34 ± 0.50 % ID/g
same,"Biodistribution, Muscle",Biodistribution study; 60 min,0.87 ± 0.05 % ID/g
same,"Biodistribution, Small intestine",Biodistribution study; 60 min,14.92 ± 4.06 % ID/g
same,"Biodistribution, Spleen",Biodistribution study; 60 min,10.72 ± 2.45 % ID/g
same,logP,[4],2.58 ± 0.04
same,[^18F]2 remaining in the brain,[5],84%
COc1cc(/C=C/C2=CC(/C=C/c3ccc(O)c(OC)c3)=[O+][B-](F)(F)O2)ccc1O [difluoroboron-curcumin],IC50,HIV-1 protease,24000 nM
